Test results: ChEMBL document CHEMBL1201862, “PubChem BioAssay data set” (2004)
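Cultured in 96-well plates, cells were exposed to test compound for 48 hours across five concentrations. GI50 is the concentration that inhibits growth by half.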 The source made the active and inactive calls. Cut-off read from the data, not from the text of the source: active = GI50 up to about 1.1 µM and inactive = higher.

Assays:
Assay in all cases: NCI anticancer screen, dose series, 48 h
786-0 = tested on: 786-0
LOX IMVI = tested on: LOX IMVI
NCI-H522 = tested on: NCI-H522
U-251 = tested on: U-251
NCI-H460 = tested on: NCI-H460
KM12 = tested on: KM12
OVCAR-8 = tested on: OVCAR-8
SF-268 = tested on: SF-268
SNB-75 = tested on: SNB-75
OVCAR-4 = tested on: OVCAR-4
NCI-H23 = tested on: NCI-H23
COLO 205 = tested on: COLO 205
EKVX = tested on: EKVX
SK-MEL-28 = tested on: SK-MEL-28
SK-OV-3 = tested on: SK-OV-3
SK-MEL-5 = tested on: SK-MEL-5
SNB-19 = tested on: SNB-19
RPMI-8226 = tested on: RPMI-8226

Measured: GI50

CC1=C(O)/C(=C/C(C)CCC/C(C)=C/C=C/C(C)CCCc2ccoc2)OC1=O (stereo not given)
inactive: 786-0 25.5 µM | LOX IMVI 34.2 µM | NCI-H522 37.2 µM | U-251 37.8 µM | NCI-H460 30.3 µM | KM12 34.4 µM | OVCAR-8 34.4 µM | SF-268 26.7 µM | SNB-75 25.2 µM | OVCAR-4 29.4 µM | NCI-H23 23.7 µM | COLO 205 35.3 µM | EKVX 25 µM | SK-MEL-28 25 µM

CN(C)c1n/c(=N/c2ccc3c(c2)OCO3)ss1
inactive: 786-0 70.6 µM | LOX IMVI 64 µM | NCI-H522 26.7 µM | SK-OV-3 > 100 µM | U-251 37.6 µM | NCI-H460 47.4 µM | KM12 51.5 µM | OVCAR-8 72.1 µM | SF-268 47.6 µM | SNB-75 9.71 µM | OVCAR-4 > 100 µM | NCI-H23 66.4 µM | SK-MEL-5 55.3 µM | SNB-19 74.5 µM | EKVX 49.9 µM | RPMI-8226 19.3 µM | SK-MEL-28 > 100 µM

CC(=O)OC1CC2C(C)(C)OC(=O)CC(OC(C)=O)[C@]2(C)C2CCC3(C)C(=CCC3[C@H]3COC(=O)C3)[C@]12C (stereo not given in full)
inactive: 786-0 > 100 µM | LOX IMVI > 100 µM | NCI-H522 83.4 µM | SK-OV-3 > 100 µM | U-251 > 100 µM | NCI-H460 > 100 µM | KM12 > 100 µM | OVCAR-8 > 100 µM | SF-268 > 100 µM | SNB-75 46.6 µM | OVCAR-4 > 100 µM | NCI-H23 > 100 µM | COLO 205 > 100 µM | SK-MEL-5 > 100 µM | SNB-19 > 100 µM | EKVX 65.5 µM | RPMI-8226 47.1 µM | SK-MEL-28 42.6 µM

O/N=C1/C(=C/c2ccc3c(c2)OCO3)CCCC1C(NO)c1ccc2c(c1)OCO2 (stereo not given)
inactive: 786-0 28.9 µM | NCI-H522 17.7 µM | SK-OV-3 48.2 µM | U-251 20.8 µM | NCI-H460 29.4 µM | KM12 22.7 µM | OVCAR-8 24.6 µM | SF-268 28.2 µM | SNB-75 27.2 µM | OVCAR-4 24.6 µM | NCI-H23 30.4 µM | COLO 205 25.4 µM | SK-MEL-5 17.4 µM | SNB-19 32.4 µM | EKVX 35.1 µM | RPMI-8226 18.8 µM | SK-MEL-28 21.7 µM

CCCCCCCCCCCCCCC(C)CCC(=O)O (stereo not given)
inactive: 786-0 80.9 µM | LOX IMVI 31.6 µM | U-251 52.5 µM | NCI-H460 31.9 µM | KM12 49.8 µM | OVCAR-8 > 100 µM | SF-268 > 100 µM | SNB-75 > 100 µM | OVCAR-4 > 100 µM | NCI-H23 > 100 µM | COLO 205 44 µM | SK-MEL-5 > 100 µM | SNB-19 > 100 µM | EKVX > 100 µM | SK-MEL-28 > 100 µM

CSc1nc(NC2OCC(OC(C)=O)C(OC(C)=O)C2OC(C)=O)c2c(n1)OCC2=O (stereo not given)
inactive: 786-0 > 100 µM | LOX IMVI > 100 µM | NCI-H522 > 100 µM | SK-OV-3 > 100 µM | U-251 > 100 µM | NCI-H460 > 100 µM | KM12 > 100 µM | OVCAR-8 > 100 µM | SF-268 > 100 µM | SNB-75 > 100 µM | NCI-H23 > 100 µM | COLO 205 > 100 µM | SK-MEL-5 > 100 µM | SNB-19 > 100 µM | EKVX > 100 µM | RPMI-8226 > 100 µM | SK-MEL-28 > 100 µM

C[N+](C)(C)CC1CCCC(C[N+](C)(C)C)C1=NO (stereo not given)
inactive: 786-0 > 100 µM | SK-OV-3 > 100 µM | U-251 > 100 µM | NCI-H460 > 100 µM | KM12 > 100 µM | OVCAR-8 > 100 µM | SNB-75 > 100 µM | OVCAR-4 > 100 µM | NCI-H23 > 100 µM | COLO 205 > 100 µM | SK-MEL-5 > 100 µM | SNB-19 > 100 µM | EKVX > 100 µM | RPMI-8226 > 100 µM | SK-MEL-28 > 100 µM

NS(=O)(=O)c1ccc(NC(=O)Cc2nc3ccccc3s2)cc1
inactive: 786-0 19.4 µM | NCI-H522 18.1 µM | SK-OV-3 25.7 µM | U-251 15.2 µM | NCI-H460 17.5 µM | KM12 16.3 µM | OVCAR-8 20.4 µM | SF-268 16.2 µM | SNB-75 16.4 µM | OVCAR-4 19.3 µM | NCI-H23 15.9 µM | COLO 205 19.5 µM | SK-MEL-5 20.2 µM | SNB-19 23.5 µM | EKVX 22.6 µM | RPMI-8226 21.3 µM | SK-MEL-28 17.7 µM

CN(C)CCCNc1ccc2ncn3c4ccccc4c(=O)c1c23
inactive: 786-0 4.52 µM | LOX IMVI 3.51 µM | NCI-H522 6.17 µM | SK-OV-3 8.59 µM | U-251 11.4 µM | NCI-H460 3.43 µM | KM12 5.87 µM | OVCAR-8 4.9 µM | SF-268 7.6 µM | SNB-75 10.5 µM | OVCAR-4 21.9 µM | NCI-H23 12.3 µM | COLO 205 2.49 µM | SNB-19 20.3 µM | RPMI-8226 4.71 µM | SK-MEL-28 31.6 µM

O=c1c2ccccc2c(=O)c2c1cc(Cl)c1[nH]c3c([nH]c12)c(Cl)cc1c(=O)c2ccccc2c(=O)c13
inactive: 786-0 > 100 µM | NCI-H522 > 100 µM | SK-OV-3 > 100 µM | U-251 > 100 µM | NCI-H460 > 100 µM | KM12 > 100 µM | OVCAR-8 > 100 µM | SF-268 > 100 µM | SNB-75 > 100 µM | OVCAR-4 > 100 µM | NCI-H23 > 100 µM | COLO 205 > 100 µM | SNB-19 > 100 µM | EKVX > 100 µM | RPMI-8226 > 100 µM | SK-MEL-28 > 100 µM

Clc1cc(Cl)c2n[se]nc2c1
inactive: 786-0 > 100 µM | LOX IMVI 69.7 µM | NCI-H522 > 100 µM | SK-OV-3 > 100 µM | U-251 > 100 µM | NCI-H460 > 100 µM | KM12 > 100 µM | OVCAR-8 > 100 µM | SF-268 > 100 µM | SNB-75 60.1 µM | OVCAR-4 > 100 µM | NCI-H23 > 100 µM | SK-MEL-5 > 100 µM | SNB-19 > 100 µM | EKVX > 100 µM | RPMI-8226 > 100 µM | SK-MEL-28 > 100 µM

C=C1CCC2C(C)(CO)C(O)CCC2(C)C1C/C=C1/CCOC1=O (stereo not given)
inactive: 786-0 > 100 µM | LOX IMVI > 100 µM | NCI-H522 31.3 µM | SK-OV-3 > 100 µM | U-251 > 100 µM | NCI-H460 > 100 µM | KM12 > 100 µM | OVCAR-8 > 100 µM | SNB-75 > 100 µM | OVCAR-4 > 100 µM | NCI-H23 > 100 µM | COLO 205 > 100 µM | SK-MEL-5 > 100 µM | SNB-19 > 100 µM | EKVX > 100 µM | RPMI-8226 > 100 µM

CCN(CC)[C@@H]1c2cc3c(cc2C(c2cc(OC)c(O)c(OC)c2)C2C(=O)CO[C@@H]21)OCO3 (stereo not given in full)
inactive: 786-0 > 100 µM | LOX IMVI > 100 µM | NCI-H522 > 100 µM | SK-OV-3 > 100 µM | U-251 > 100 µM | NCI-H460 > 100 µM | KM12 > 100 µM | OVCAR-8 > 100 µM | SF-268 > 100 µM | SNB-75 > 100 µM | OVCAR-4 > 100 µM | NCI-H23 > 100 µM | COLO 205 > 100 µM | SK-MEL-5 > 100 µM | EKVX > 100 µM | RPMI-8226 > 100 µM | SK-MEL-28 > 100 µM

CC1c2[nH]c3ccccc3c2CCN1O (stereo not given)
inactive: 786-0 > 100 µM | LOX IMVI > 100 µM | NCI-H522 > 100 µM | SK-OV-3 > 100 µM | U-251 > 100 µM | KM12 > 100 µM | OVCAR-8 > 100 µM | SF-268 > 100 µM | SNB-75 68.5 µM | OVCAR-4 > 100 µM | NCI-H23 > 100 µM | COLO 205 > 100 µM | SK-MEL-5 > 100 µM | SNB-19 > 100 µM | EKVX > 100 µM | RPMI-8226 > 100 µM | SK-MEL-28 > 100 µM

CC1C[C@H](C)CC(C(O)CC2CC(=O)N(Cc3ccccc3)C(=O)C2)C1O (stereo not given in full)
inactive: 786-0 > 100 µM | LOX IMVI > 100 µM | NCI-H522 > 100 µM | SK-OV-3 > 100 µM | U-251 > 100 µM | NCI-H460 > 100 µM | KM12 48.9 µM | OVCAR-8 > 100 µM | SF-268 > 100 µM | SNB-75 > 100 µM | OVCAR-4 > 100 µM | NCI-H23 2.65 µM | COLO 205 > 100 µM | SNB-19 > 100 µM | EKVX > 100 µM | RPMI-8226 > 100 µM | SK-MEL-28 > 100 µM

NC(=O)C12CCC1C1CCCCC12N1CCOCC1 (stereo not given)
inactive: 786-0 > 100 µM | LOX IMVI > 100 µM | NCI-H522 > 100 µM | SK-OV-3 > 100 µM | U-251 > 100 µM | NCI-H460 > 100 µM | KM12 > 100 µM | OVCAR-8 > 100 µM | SF-268 > 100 µM | SNB-75 > 100 µM | OVCAR-4 > 100 µM | NCI-H23 > 100 µM | SK-MEL-5 > 100 µM | SNB-19 > 100 µM | EKVX > 100 µM | RPMI-8226 > 100 µM | SK-MEL-28 > 100 µM

CCCNc1ncnc2c1cnn2C
inactive: 786-0 > 100 µM | LOX IMVI > 100 µM | NCI-H522 > 100 µM | SK-OV-3 > 100 µM | U-251 > 100 µM | NCI-H460 > 100 µM | KM12 > 100 µM | OVCAR-8 > 100 µM | SF-268 > 100 µM | SNB-75 51.3 µM | OVCAR-4 > 100 µM | NCI-H23 > 100 µM | COLO 205 > 100 µM | SK-MEL-5 > 100 µM | SNB-19 > 100 µM | RPMI-8226 > 100 µM | SK-MEL-28 > 100 µM
